Laboratory results: US20230348426A1, “OXOPYRROLIDINE FPR2 AGONISTS” (Bristol-Myers Squibb Company, priority 2020, published 2023)

Key:
[1] = target: human FPR2 (Homo sapiens (Human), UniProt P25090); experiment: FPR2 cyclic adenosine monophosphate (cAMP) assay; type: cell-based; conditions: CHO cells overexpressing human FPR2; forskolin 5 µM; inhibition of cAMP production; read-out: hFPR2 cAMP2 EC50
How it was run: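 Inhibition of forskolin-driven (5 µM) cAMP, with 200 µM IBMX, measured in human FPR2-expressing CHO cells, 2,000 per well, 30 min at room temperature; compounds tested 0.020 nM to 100 µM in 1% DMSO. HTRF 665/590 ratio converted to cAMP via calibration curve, then 4-parameter fit.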

[2] = target: human FPR1 (Homo sapiens (Human), UniProt P21462); experiment: FPR1 cyclic adenosine monophosphate (cAMP) assay; type: cell-based; conditions: CHO cells overexpressing human FPR1; forskolin 10 µM; inhibition of cAMP production; read-out: hFPR1 cAMP EC50
How it was run: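 Human FPR1-expressing CHO cells were used at 4,000 per well, with compound at 0.020 nM–100 µM in 1% DMSO. Potency came from a 4-parameter logistic fit.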

human FPR1, sequence (P21462 whole entry): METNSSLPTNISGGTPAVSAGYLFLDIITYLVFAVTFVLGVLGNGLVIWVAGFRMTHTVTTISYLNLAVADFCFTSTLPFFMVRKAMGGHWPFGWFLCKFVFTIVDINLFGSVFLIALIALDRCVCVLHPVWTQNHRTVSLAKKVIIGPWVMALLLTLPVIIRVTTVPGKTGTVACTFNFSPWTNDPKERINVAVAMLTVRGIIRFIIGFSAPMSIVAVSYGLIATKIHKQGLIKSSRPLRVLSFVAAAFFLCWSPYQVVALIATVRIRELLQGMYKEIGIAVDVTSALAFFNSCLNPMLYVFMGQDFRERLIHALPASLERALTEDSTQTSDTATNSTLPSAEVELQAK
human FPR2, sequence (P25090 whole entry): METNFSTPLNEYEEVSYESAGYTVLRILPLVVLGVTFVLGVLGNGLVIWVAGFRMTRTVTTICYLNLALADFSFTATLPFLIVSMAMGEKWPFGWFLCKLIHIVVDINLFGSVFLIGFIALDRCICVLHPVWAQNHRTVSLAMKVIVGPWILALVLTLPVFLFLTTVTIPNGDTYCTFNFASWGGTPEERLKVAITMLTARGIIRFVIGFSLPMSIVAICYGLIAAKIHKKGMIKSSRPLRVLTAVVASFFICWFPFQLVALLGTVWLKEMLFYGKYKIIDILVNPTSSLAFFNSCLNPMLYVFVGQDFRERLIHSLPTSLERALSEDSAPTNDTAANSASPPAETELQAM

Structure (SMILES)	EC50 [1] [nM]	EC50 [2] [nM]
COc1ccc([C@@H]2CN(c3cccn(CC(F)F)c3=O)C(=O)[C@H]2NC(=O)c2ccc(OC(F)(F)F)cc2)cc1 [Example 120]	3.1	13
CCn1cnc(C)c(N2C[C@@H](c3c(F)cc(OC)cc3F)[C@H](NC(=O)c3ccc(Cl)cc3)C2=O)c1=O [Example 520]	4.9	1300
COc1cc(F)c([C@@H]2CN(c3c(C)c4c(n(CCO)c3=O)CCCC4)C(=O)[C@H]2NC(=O)c2ccc(OC(F)(F)F)cc2)c(F)c1 [Example 606]	20	53
COc1cc(F)c([C@@H]2CN(c3cccn4ccnc34)C(=O)[C@H]2NC(=O)c2ccc(Cl)cc2)c(F)c1 [Example 519]	3.1	480
COCCn1c2c(cc(N3C[C@@H](c4c(F)cc(OC)cc4F)[C@H](NC(=O)c4ccc(Cl)cc4)C3=O)c1=O)CCCC2 [Example 461]	3.7	3
COc1cc(F)c([C@@H]2CN(c3cccn(C)c3=O)C(=O)[C@H]2NC(=O)c2ccc(OC(F)F)cc2)c(F)c1 [Example 34]	3.8	300
COc1cc(C2CCN(C)CC2)nc(N2C(=O)[C@@H](NC(=O)c3ccc(OC(F)F)cc3)[C@H](c3c(F)cc(OC)cc3F)[C@@H]2C)c1 [Example 538]	1.3	2000
COc1cc(F)c([C@@H]2CN(c3c(C)ccn(CC(O)C4CC4)c3=O)C(=O)[C@H]2NC(=O)c2ccc(OC(F)F)cc2)c(F)c1 (some centres unmarked) [Example 682]	15	1
COCC(CO)n1cccc(N2C[C@@H](c3ccc(OC)cc3)[C@H](NC(=O)c3ccc(OC(F)(F)F)cc3)C2=O)c1=O (some centres unmarked) [Example 136]	3.5	2.2
COc1cc(F)c([C@@H]2CN(c3cccn(CCC(F)(F)F)c3=O)C(=O)[C@H]2NC(=O)c2ccc(OC(F)F)cc2)c(F)c1 [Example 241]	6.6	38
COc1cc(F)c([C@@H]2CN(c3ccc4n(c3=O)CCOC4=O)C(=O)[C@H]2NC(=O)c2ccc(OC(F)(F)F)cc2)c(F)c1 [Example 667]	63	7.7
COCC(CO)n1cccc(N2C[C@@H](c3ccc(Cl)cc3)[C@H](NC(=O)c3ccc(OC(F)(F)F)cc3)C2=O)c1=O (some centres unmarked) [Example 154]	4	3.3
COc1cc(F)c([C@@H]2CN(c3cccn(CC4CC4)c3=O)C(=O)[C@H]2NC(=O)c2ccc(OC(F)(F)F)cc2)c(F)c1 [Example 272]	7.8	14
COc1cc(F)c([C@@H]2CN(c3c(C)ccn(C4CCNC4)c3=O)C(=O)[C@H]2NC(=O)c2ccc(OC(F)(F)F)cc2)c(F)c1 (some centres unmarked) [Example 613]	11.8	9.3
COc1cc(F)c([C@@H]2CN(c3nccc(N4CCN5CCCC5C4)c3C(F)(F)F)C(=O)[C@H]2NC(=O)c2ccc(Cl)cc2)c(F)c1 (some centres unmarked) [Example 481]	1.2	2200
COc1cc(F)c([C@@H]2CN(c3c(Cl)ccn(C)c3=O)C(=O)[C@H]2NC(=O)c2ccc(Cl)cc2)c(F)c1 [Example 196]	5.2	160
COCCn1ccc(C)c(N2C[C@@H](c3ccc(OC)cc3F)[C@H](NC(=O)c3ccc(OC(F)F)cc3)C2=O)c1=O [Example 208]	5.4	1.4
COc1cc(F)c([C@@H]2CN(c3cccc(N4CCOCC4)n3)C(=O)[C@H]2NC(=O)c2ccc(OC(F)F)cc2)c(F)c1 [Example 580]	3.6	740
COc1ccc([C@@H]2CN(c3c(C)ccn(C4CCC4)c3=O)C(=O)[C@H]2NC(=O)c2ccc(OC(F)F)cc2)c(F)c1 [Example 689]	4.5	1.5
COc1cc(F)c([C@@H]2CN(c3c(C)ccn(CC(F)F)c3=O)C(=O)[C@H]2NC(=O)c2ccc(OC(F)F)cc2)c(F)c1 [Example 90]	2.5	3.5
COc1cc(F)c([C@@H]2CN(c3nccc(N4C[C@@H]5C[C@H]4CN5C)c3C(F)(F)F)C(=O)[C@H]2NC(=O)c2ccc(Cl)cc2)c(F)c1 [Example 334]	14	480
COc1cc(F)c([C@@H]2CN(c3ccc(C)n(C)c3=O)C(=O)[C@H]2NC(=O)c2ccc(Cl)cc2)c(F)c1 [Example 140]	3.5	610
COCCn1cnc(C)c(N2C[C@@H](c3c(F)cc(OC)cc3F)[C@H](NC(=O)c3ccc(Cl)cc3)C2=O)c1=O [Example 521]	9	330
COc1cc(F)c([C@@H]2CN(c3c(C)ccn(CC(C)O)c3=O)C(=O)[C@H]2NC(=O)c2ccc(Cl)cc2)c(F)c1 (some centres unmarked) [Example 362]	0.1	12
CCn1nccc(N2C[C@@H](c3ccc(OC)cc3)[C@H](NC(=O)c3ccc(OC(F)F)cc3)C2=O)c1=O [Example 674]	6.8	23

Structure (SMILES)	EC50 [1] [nM]	EC50 [2] [nM]
COc1ccc([C@@H]2CN(c3c(C)ccn(CCC(F)(F)F)c3=O)C(=O)[C@H]2NC(=O)c2ccc(OC(F)F)cc2)cc1 [Example 387]	2.2	1
CCn1nccc(N2C[C@@H](c3ccc(OC)cc3)[C@H](NC(=O)c3ccc(OC(F)(F)F)cc3)C2=O)c1=O [Example 675]	5.5	5
COCC(C(=O)N1C[C@@H]2C[C@H]1CO2)n1cccc(N2C[C@@H](c3c(F)cc(OC)cc3F)[C@H](NC(=O)c3ccc(OC(F)(F)F)cc3)C2=O)c1=O (some centres unmarked) [Example 363]	0.8	3
COc1cc(F)c([C@@H]2CN(c3c(C)ccn(CC(O)C(F)(F)F)c3=O)C(=O)[C@H]2NC(=O)c2ccc(OC(F)F)cc2)c(F)c1 (some centres unmarked) [Example 294]	8.8	9.1
COc1cc(C2CC2)nc(N2C(=O)[C@@H](NC(=O)c3ccc(OC(F)(F)F)cc3)[C@H](c3c(F)cc(OC)cc3F)[C@@H]2C)c1 [Example 575]	480	> 5000
COc1cc(F)c([C@H]2[C@H](NC(=O)c3ccc(OC(F)F)cc3)C(=O)N(c3cccc(N4CCOCC4)n3)[C@H]2C)c(F)c1 [Example 574]	15	550
COc1ccc([C@@H]2CN(c3cccn(CC(F)F)c3=O)C(=O)[C@H]2NC(=O)c2ccc(OC(F)(F)F)cc2)c(F)c1 [Example 45]	1	4.3
COc1cc(F)c([C@@H]2CN(c3cccn(CC(OC)C(F)(F)F)c3=O)C(=O)[C@H]2NC(=O)c2ccc(OC(F)F)cc2)c(F)c1 (some centres unmarked) [Example 186]	4.9	3
COc1cc(F)c([C@@H]2CN(c3nccc(OCC(C)(C)O)c3C(F)(F)F)C(=O)[C@H]2NC(=O)c2ccc(Cl)cc2)c(F)c1 [Example 676]	13	295
COc1cc(F)c([C@@H]2CN(c3ncn(CC(F)F)n3)C(=O)[C@H]2NC(=O)c2ccc(Cl)cc2)c(F)c1 [Example 541]	20	810
COc1cc(F)c([C@@H]2CN(c3cc(Cl)cn(C)c3=O)C(=O)[C@H]2NC(=O)c2ccc(Cl)cc2)c(F)c1 [Example 189]	5	3400
CCn1ccc(N2C[C@@H](c3c(F)cc(OC)cc3F)[C@H](NC(=O)c3ccc(OC(F)(F)F)cc3)C2=O)n1 [Example 649]	1.3	7.8
COc1cc(F)c([C@@H]2CN(c3c(C)ccn(CC(OC)C(F)(F)F)c3=O)C(=O)[C@H]2NC(=O)c2ccc(OC(F)(F)F)cc2)c(F)c1 (some centres unmarked) [Example 297]	9	0.1
COc1cc(F)c([C@@H]2CN(c3cccn(C(CO)C(F)(F)F)c3=O)C(=O)[C@H]2NC(=O)c2ccc(OC(F)F)cc2)c(F)c1 (some centres unmarked) [Example 582]	4.7	550
COc1cc(F)c([C@@H]2CN(c3nc(C(F)(F)F)ccc3N3CC[C@H](O)C3)C(=O)[C@H]2NC(=O)c2ccc(Cl)cc2)c(F)c1 [Example 212]	5.6	100
COc1cc(N2C[C@@H](c3c(F)cc(OC)cc3F)[C@H](NC(=O)c3ccc(OC(F)F)cc3)C2=O)nc(C(C)(C)O)c1 [Example 585]	21.8	1200
COCC(CO)n1ccc(C)c(N2C[C@@H](c3ccc(OC)cc3)[C@H](NC(=O)c3ccc(OC(F)(F)F)cc3)C2=O)c1=O (some centres unmarked) [Example 563]	2.3	2.3
COc1cc(C2CCN(CC(C)(C)O)CC2)nc(N2C[C@@H](c3c(F)cc(OC)cc3F)[C@H](NC(=O)c3ccc(OC(F)F)cc3)C2=O)c1 [Example 720]	3.9	> 5000
COc1cc(F)c([C@H]2[C@H](NC(=O)c3ccc(OC(F)F)cc3)C(=O)N(c3cccc(C4CCNCC4)n3)[C@H]2C)c(F)c1 [Example 528]	0.2	600
COc1cc(F)c([C@@H]2CN(c3cccn(CC(C)OC)c3=O)C(=O)[C@H]2NC(=O)c2ccc(OC(F)F)cc2)c(F)c1 (some centres unmarked) [Example 253]	7	11
COc1cc(F)c([C@@H]2CN(c3c(C)ccn(CC4CC4)c3=O)C(=O)[C@H]2NC(=O)c2ccc(OC(F)F)cc2)c(F)c1 [Example 195]	5.2	1.3
COc1ccc([C@@H]2CN(c3c(C)ccn(CCC(F)(F)F)c3=O)C(=O)[C@H]2NC(=O)c2ccc(OC(F)F)cc2)c(F)c1 [Example 402]	2.8	3
COc1cc(F)c([C@@H]2CN(c3c(C)ccn(CC4CCO4)c3=O)C(=O)[C@H]2NC(=O)c2ccc(OC(F)F)cc2)c(F)c1 (some centres unmarked) [Example 616]	9.4	20
COc1cc(F)c([C@@H]2CN(c3cncn(C(CO)C(F)(F)F)c3=O)C(=O)[C@H]2NC(=O)c2ccc(Cl)cc2)c(F)c1 (some centres unmarked) [Example 518]	2	3300
